Assay results from patent US5948764A, “Methods for treatment of multiple sclerosis utilizing peptide analogues of human myelin basic protein” (Neurocrine Biosciences, Inc., priority 1997, dated 1999).
Where a SMILES comes first, the peptide text is derived from it. [ ]: non-standard residue; d: D form.

Experiments:
EAE [1] = conditions: single 250 μg dose in CFA, pertussis toxin i.v. day 0 and 2
Protocol: Similarly, mice are injected with a single, 250 μg dose of MBP (87-99) or A97 in CFA containing 500 μg of heat killed Mycobacterium. Pertussis toxin (400 ng/mouse) is injected i.v. at day 0 and day 2. Mice are assessed for disease symptoms as described above.

EAE [2] = conditions: rat, in vivo
[3] = tested on: lymph node cells from MBP 87-99 immunized rats; experiment: Antigen-specific lymph node cell proliferation, MBP 87-99 immunized rats; type: cell-based, Lewis rats; conditions: FIG. 3B, separate experiment
Protocol: Within the second assay, draining lymph node cells from Lewis rats or SJL mice injected with MBP (87-99) may be used. Preferably, this assay is used in combination with the proliferation assay using T cell lines. Briefly, Lewis rats or SJL mice are injected subcutaneously with MBP (87-99) peptide in complete Freund's adjuvant. Nine to ten days later, draining lymph node cells are isolated and single-cell suspensions are prepared. Lymph node cells are incubated with various concentrations of peptide analogues for three days in a humidified air chamber containing 6.5% CO2. After incubation, the cultures are pulsed with 1-2 μCi of [^3 H]-thymidine for 12-18 hours. Cultures are harvested on fiberglass filters and counted in a scintillation counter. Mean CPM and the standard error of the mean are calculated from data determined in triplicate cultures. […] Peptide analogues which are suitable for further screening will preferably, at concentrations of at least 10 μM, cause stimulation to a level of at least 25% of the native peptide.
Female Lewis rates, approximately six weeks old, are purchased from Harlan Sprague, Indianapolis, Ind. MBP peptides are dissolved in phosphate-buffered saline (PBS) and emulsified with an equal volume of complete Freund's adjuvant (Difco Laboratories, Inc., Detroit, Mich.) supplemented with 2 mg/ml of heat-killed Mycobacterium tuberculosis H37Ra in oil (Difco). […]

[4] = tested on: IL-2 stimulated T cell line reactive to MBP 87-99; experiment: Cytokine production by MBP 87-99 reactive T cell line (ELISA); type: cell-based, SJL; conditions: 48 hr; 10 μM PLP 139-151, 3 μM A97 or 3 μM MBP 87-99
Protocol: Other suitable assays of antigen-specific T cell responses include induction of cytokine production, phosphorylation of the CD3 zeta chain, and induction of apoptosis. Briefly, for assaying cytokine production, an IL-2-stimulated T cell line, which is reactive to MBP […], is incubated with IL-2 and various MBP peptide analogues. Cytokine release is measured at 48 hr. Cytokines are measured by ELISA, or alternatively, RNA expression of cytokines may be measured by Northern blot, RNase probe protection or other standard hybridization methods. Cytokines to be assayed include IL-1 through IL-14, γ-IFN, TNF, and the like. Phosphorylation of the CD3 zeta chain is assayed in MBP 87-89-specific T cells. Briefly, cells are co-incubated with antigen-presenting cells, such as T-depleted splenocytes, which have been pulsed with MBP 87-99 or peptide analogue. Cells are then lysed, and the zeta chain is immunoprecipitated and electrophoresed on an SDS-PAGE gel. The […] may be detected with an antibody. In a third assay, apoptosis may be induced in an antigen-specific manner. For this assay, an MBP stimulated T cell line is incubated with IL-2 and various peptides. Cell loss is measured by flow cytometry or other standard method.
Cytokine production by an IL-2 stimulated T cell line, which is reactive to MBP 87-99, is measured in response to various peptides and peptide analogues. The activated T cell line is co-cultured for 48 hr with a 10-fold excess of irradiated (3000 Rads) SJL T cell-depleted spleen cells, 50 IU/ml human rIL-2 and 10 μM PLP 139-151, 3 μM A97, or 3 μM MBP 87-99. Cytokine release is measured by ELISA.

[5] = tested on: Murine MBP-specific T cell clones (AG.1H8); experiment: Proliferation of murine MBP-specific T cell clone AG.1H8; type: cell-based; conditions: 72 hr, [3H]-thymidine
Protocol: Murine MBP-specific T cell clones were also used as targets in proliferation assays. T cell clones (30,000 cells) were cultured for 72 hr in the presence of MBP 87-99, A97, or PLP 139-151 (myelin proteolipid protein), and irradiated, syngeneic spleen cells. For 18 hr prior to harvesting, [^3 H]-thymidine was added to each culture. Incorporated thymidine was determined.

multiple sclerosis = conditions: in vivo; cited from earlier work

Molecule: CC[C@H](C)[C@H](NC(=O)[C@H](CC(N)=O)NC(=O)[C@H](CCCCN)NC(=O)[C@H](Cc1ccccc1)NC(=O)[C@H](Cc1ccccc1)NC(=O)[C@H](Cc1c[nH]cn1)NC(=O)[C@@H](NC(=O)[C@@H](N)C(C)C)C(C)C)C(=O)N[C@H](C(=O)N[C@H](C(=O)N1CCC[C@H]1C(=O)N[C@@H](C)C(=O)N[C@H](C(=O)N1CCC[C@H]1C(=O)O)[C@@H](C)O)[C@@H](C)O)C(C)C [A97] (H-VVHFFKNIVTPATP-OH)
- animals developing disease (EAE [1]): 5/5
- mean clinical score following injection (EAE [1]; FIG. 11): increased mean clinical score

Molecule: CC[C@H](C)[C@H](NC(=O)[C@H](CC(N)=O)NC(=O)[C@H](CCCCN)NC(=O)[C@H](Cc1ccccc1)NC(=O)[C@H](Cc1ccccc1)NC(=O)[C@@H](Cc1c[nH]cn1)NC(=O)[C@@H](NC(=O)[C@@H](N)C(C)C)C(C)C)C(=O)N[C@H](C(=O)N[C@H](C(=O)N1CCC[C@H]1C(=O)N[C@@H](CCCNC(=N)N)C(=O)N[C@H](C(=O)N1CCC[C@H]1C(=O)O)[C@@H](C)O)[C@@H](C)O)C(C)C [h88] (H-VV[dH]FFKNIVTPRTP-OH)
- induction of EAE (EAE [2]): does not induce EAE in rats

Molecule: CC[C@H](C)[C@H](NC(=O)[C@@H]1CCCN1C(=O)[C@@H](NC(=O)[C@@H](N)Cc1ccccc1)C(C)C)C(=O)N[C@@H](Cc1ccccc1)C(=O)N[C@H](C(=O)N[C@@H](Cc1ccc(O)cc1)C(=O)NCC(=O)N[C@@H](CCC(=O)O)C(=O)N[C@@H](CC(C)C)C(=O)N[C@@H](CCC(N)=O)C(=O)N[C@@H](CCCNC(=N)N)C(=O)N[C@@H](CCSC)C(=O)N[C@@H](CCC(N)=O)C(=O)N[C@@H](CCC(=O)O)C(=O)N[C@@H](CCCCN)C(=O)N[C@@H](CCC(=O)O)C(=O)N[C@@H](CCCNC(=N)N)C(=O)N[C@@H](CC(N)=O)C(=O)N[C@@H](CCCCN)C(=O)NCC(=O)N[C@@H](CCC(N)=O)C(=O)O)[C@@H](C)O [motlin]
- proliferative response of lymph node cells [3]: not

Molecule: PLP 139-151: myelin proteolipid protein peptide 139-151, control peptide (CHCLGKWLGHPDK; UniProt P60202 139-151, looked up, fragment)
- IL-2 release [4]: 1646 pg/mL
- IL-4 release [4]: 2197 pg/mL
- γ-IFN release [4]: 3073 pg/mL
- Proliferation ([5]; 10 μM peptide): 0.15 ± 0.03 CPM × 10^-3
- Proliferation ([5]; 50 μM peptide): 0.26 ± 0.12 CPM × 10^-3

B1: IFN-γ: cytokine administered in a pilot study in MS (protein, UniProt P01579 24-161, looked up)
Interferon gamma: QDPYVKEAENLKKYFNAGHSDVADNGTLFLGILKNWKEESDRKIMQSQIVSFYFKLFKNFKDDQSIQKSVETIKEDMNVKFFNSNKKKRDDFEKLTNYSVTDLNVQRKAIHELIQVMAELSPAAKTGKRKRSQMLFRG
- patients with a clinical exacerbation (multiple sclerosis): 7 of 18
